# Measured values published in patent publication US6323315A, “Dolastatin peptides” (priority 2000, dated 2001).
# What was measured:
# tubulin = details: cited from earlier work
# [1] = tested on: human lymphoma cell lines; details: cited from earlier work
# [2] = tested on: P388 lymphocytic leukemia (PS system) cell line; details: cited from earlier work
# SK-MEL-5 (melanoma) = experiment: in vitro cytotoxicity, cultured cancer cell panel: SK-MEL-5; format: cell-based, Human; details: for GI-50: SK-MEL-5, melanoma, 48 hours; for LC-50 / TGI: SK-MEL-5; for LC-50: -50% growth; for TGI: total growth inhibition (0% growth)
# Experimental: (§1) Compounds prepared according to Examples 1-14 above were evaluated for in vitro cytotoxicity against a panel of cultured cancer cells, including the cell lines OVCAR-3 (ovarian cancer), SF-295 (central nervous system), A498 (renal cancer), NCI-H460 (non-small lung carcinoma), KM20L2 (colon cancer) and SK-MEL-5 (melanoma). For each cell line, each compound was tested at 5 concentrations, 100 μg/mL, 10 μg/mL, 1 μg/mL, 0.1 μg/mL and 0.01 μg/mL. Percent growth values were calculated for each concentration, and the two or three concentrations with growth values above, below or near 50% growth (relative to control) were used to calculate the ED50 value using a linear regression calculation. In cases in which 50% growth inhibition was not observed for any of the concentrations, the ED50 value was expressed as ED50 >100 μg/mL. If the growth inhibition was greater than 50% for each concentration, the ED50 was expressed as <0.01 μg/mL. Similar calculations were performed for total growth inhibition (TGI; 0% growth) and LC50 (-50% growth).
# (§2) At the start of each experiment, cells from the in vitro cell culture were inoculated into tubes or microtiter plates. One set of control tubes/plates was immediately counted to determine the cell count at the beginning of the experiment. This is the "baseline count" or T0 reading. After 48 hours, a second set of control tubes/plates is analyzed to determine the control growth value. The growth or death of cells relative to the T0 value is used to define the percent growth.
# A498 (renal cancer) = experiment: in vitro cytotoxicity, cultured cancer cell panel: A498; format: cell-based, Human; details: for GI-50: A498, renal, 48 hours; for LC-50 / TGI: A498; for LC-50: -50% growth; for TGI: total growth inhibition (0% growth)
# Experimental: as §1, §2
# [3] = tested on: NCI-H460 (non-small lung carcinoma); experiment: in vitro cytotoxicity, cultured cancer cell panel: NCI-H460; format: cell-based, Human; details: for GI-50: NCI-H460, lung-NSC, 48 hours; for LC-50 / TGI: NCI-H460; for LC-50: -50% growth; for TGI: total growth inhibition (0% growth)
# Experimental: as §1, §2
# KM20L2 (colon cancer) = experiment: in vitro cytotoxicity, cultured cancer cell panel: KM20L2; format: cell-based, Human; details: for GI-50: KM20L2, colon, 48 hours; for LC-50 / TGI: KM20L2; for LC-50: -50% growth; for TGI: total growth inhibition (0% growth)
# Experimental: as §1, §2
# [4] = tested on: P-388 Lymphocytic Leukemia; experiment: Murine P-388 lymphocytic leukemia cell line inhibition; format: cell-based; details: P-388 mouse leukemia
# [5] = tested on: SF-295 (central nervous system); experiment: in vitro cytotoxicity, cultured cancer cell panel: SF-295; format: cell-based, Human; details: for GI-50: SF-295, CNS, 48 hours; for LC-50 / TGI: SF-295; for LC-50: -50% growth; for TGI: total growth inhibition (0% growth)
# Experimental: as §1, §2
# OVCAR-3 (ovarian cancer) = experiment: in vitro cytotoxicity, cultured cancer cell panel: OVCAR-3; format: cell-based, Human; details: for GI-50: OVCAR-3, ovarian, 48 hours; for TGI / LC-50: OVCAR-3; for TGI: total growth inhibition (0% growth); for LC-50: -50% growth
# Experimental: as §1, §2
Substance,tubulin polymerization (tubulin),growth of four different human lymphoma cell lines [1],GI-50 (SK-MEL-5 (melanoma)),LC-50 (SK-MEL-5 (melanoma)),TGI (SK-MEL-5 (melanoma)),GI-50 (A498 (renal cancer)),LC-50 (A498 (renal cancer)),TGI (A498 (renal cancer)),GI-50 [3],LC-50 [3],TGI [3],GI-50 (KM20L2 (colon cancer)),LC-50 (KM20L2 (colon cancer)),TGI (KM20L2 (colon cancer)),ED50 [4],GI-50 [5],GI-50 (OVCAR-3 (ovarian cancer)),TGI (OVCAR-3 (ovarian cancer)),LC-50 [5],TGI [5],also measured
Dolastatin 10,effectively inhibit,effectively inhibit,–,–,–,–,–,–,–,–,–,–,–,–,–,–,–,–,–,–,–
Dolastatin 15,effectively inhibit,effectively inhibit,–,–,–,–,–,–,–,–,–,–,–,–,–,–,–,–,–,–,growth of P388 lymphocytic leukemia (PS system) cell line [2]: inhibits the growth
Dov-Val-Dil-Dap 1-bicyclo[3.3.0]octane amide [Compound 13b],–,–,0.0007 µg/mL,> 0.01 µg/mL,> 10 ng/mL,0.002 µg/mL,> 0.01 µg/mL,> 10 ng/mL,0.00047 µg/mL,> 0.01 µg/mL,> 10 ng/mL,0.00036 µg/mL,> 0.01 µg/mL,> 10 ng/mL,2.2 ng/mL,–,–,–,–,–,–
Dov-Val-Dil-Dap 2-[p-aminophenyl]ethylamide [Compound 29d],–,–,0.00023 µg/mL,–,–,> 0.01 µg/mL,–,–,0.00013 µg/mL,–,0.87 ng/mL,4.9e-05 µg/mL,–,> 10 ng/mL,0.338 ng/mL,0.00053 µg/mL,5e-05 µg/mL,0.79 ng/mL,–,–,–
Dov-Val-Dil-Dap-Met 1-(bicyclo[3.3.0]octane) Amide [Compound 12d],–,–,0.00044 µg/mL,> 0.01 µg/mL,> 10 ng/mL,0.00048 µg/mL,> 0.01 µg/mL,> 10 ng/mL,0.00029 µg/mL,> 0.01 µg/mL,4 ng/mL,0.0003 µg/mL,> 0.01 µg/mL,0.9 ng/mL,–,0.00047 µg/mL,0.00031 µg/mL,> 10 ng/mL,> 0.01 µg/mL,> 10 ng/mL,LC-50 (OVCAR-3 (ovarian cancer)): > 0.01 µg/mL
Dov-Val-Dil-Dap-Phe Amide [Compound 28d],–,–,5.6e-07 µg/mL,> 0.0001 µg/mL,> 0.1 ng/mL,3.4e-06 µg/mL,> 0.0001 µg/mL,> 0.1 ng/mL,4.1e-07 µg/mL,> 0.0001 µg/mL,> 0.1 ng/mL,2e-07 µg/mL,> 0.0001 µg/mL,0.0041 ng/mL,0.00255 ng/mL,6.1e-07 µg/mL,3e-07 µg/mL,0.011 ng/mL,> 0.0001 µg/mL,> 0.1 ng/mL,LC-50 (OVCAR-3 (ovarian cancer)): > 0.0001 µg/mL
